According to US9738697B2 (Wisconsin Alumni Research Foundation, priority 2013, dated 2017):

Biological target: human GLP-1 receptor (Homo sapiens, UniProt P43220)
Experiment: GLP-1R activation monitored by cAMP production in HEK293 cells

human GLP-1 receptor, sequence (P43220 24-463): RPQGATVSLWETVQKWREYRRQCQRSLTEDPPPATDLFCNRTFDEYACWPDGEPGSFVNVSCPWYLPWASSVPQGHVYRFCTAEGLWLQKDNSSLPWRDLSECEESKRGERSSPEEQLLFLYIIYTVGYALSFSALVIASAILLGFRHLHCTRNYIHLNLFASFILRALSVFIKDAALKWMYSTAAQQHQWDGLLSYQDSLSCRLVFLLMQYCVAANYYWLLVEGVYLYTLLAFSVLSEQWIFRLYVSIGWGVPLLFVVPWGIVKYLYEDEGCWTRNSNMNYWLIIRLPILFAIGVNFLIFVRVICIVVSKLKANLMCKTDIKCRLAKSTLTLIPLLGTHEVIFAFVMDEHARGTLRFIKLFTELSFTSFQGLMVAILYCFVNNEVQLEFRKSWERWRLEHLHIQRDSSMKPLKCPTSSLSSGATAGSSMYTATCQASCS

Row | EC50 | cAMP production at 100 nM (in words) (100 nM peptide) | cAMP production, AVERAGES at M Concentrations −7 (peptide concentration −7 (log M)) | cAMP production, AVERAGES at M Concentrations −8 (peptide concentration −8 (log M)) | cAMP production, AVERAGES at M Concentrations −9 (peptide concentration −9 (log M)) | cAMP production, AVERAGES at M Concentrations −10 (peptide concentration −10 (log M)) | cAMP production, AVERAGES at M Concentrations −12 (peptide concentration −12 (log M)) | cAMP production, AVERAGES at M Concentrations −13 (peptide concentration −13 (log M)) | agonist character at GLP-1R (in words) (cAMP production) | SMILES
1 | > 0.1 µM | only a small amount of cAMP production | 100 | 99.2328 | 42.7672 | 18.05 | 5.688 | 5.688 | – | CC[C@H](C)[C@H](NC(=O)[C@H](Cc1ccccc1)NC(=O)[C@H](CCC(=O)O)NC(=O)C1CCCC1NC(=O)[C@H](C)NC(=O)[C@H](C)NC(=O)[C@H](CCC(N)=O)NC(=O)C1CCCC1NC(=O)[C@H](CCC(=O)O)NC(=O)[C@H](CC(C)C)NC(=O)[C@H](Cc1ccc(O)cc1)NC(=O)C1CCCC1NC(=O)[C@H](CO)NC(=O)[C@@H](NC(=O)[C@H](CC(=O)O)NC(=O)C1CCCC1NC(=O)[C@@H](NC(=O)[C@H](Cc1ccccc1)NC(=O)[C@@H](NC(=O)CNC(=O)[C@H](CCC(=O)O)NC(=O)[C@H](C)NC(=O)[C@@H](N)Cc1c[nH]cn1)[C@@H](C)O)[C@@H](C)O)C(C)C)C(=O)NC1CCCC1C(=O)N[C@@H](Cc1c[nH]c2ccccc12)C(=O)N[C@@H](CC(C)C)C(=O)N[C@H](C(=O)NC1CNCC1C(=O)NCC(=O)N[C@@H](CCCNC(=N)N)C(=O)NCC(N)=O)C(C)C (stereo partly drawn) [SEQ. ID. NO: 6, H-HAEGTFTXDVSXYLEXQAAXEFIXWLVZGRG-NH2]
2 | – | – | – | – | – | – | – | – | native-like efficacy and potency | CC[C@H](C)[C@H](NC(=O)[C@H](Cc1ccccc1)NC(=O)[C@H](CCC(=O)O)NC(=O)[C@H](CCCCN)NC(=O)[C@H](C)NC(=O)[C@H](C)NC(=O)[C@H](CCC(N)=O)NC(=O)CNC(=O)[C@H](CCC(=O)O)NC(=O)[C@H](CC(C)C)NC(=O)[C@H](Cc1ccc(O)cc1)NC(=O)[C@H](CO)NC(=O)[C@H](CO)NC(=O)C(C)(C)NC(=O)[C@H](CC(=O)O)NC(=O)[C@H](CO)NC(=O)[C@@H](NC(=O)[C@H](Cc1ccccc1)NC(=O)[C@@H](NC(=O)CNC(=O)[C@H](CCC(=O)O)NC(=O)[C@H](C)NC(=O)[C@@H](N)Cc1c[nH]cn1)[C@@H](C)O)[C@@H](C)O)C(=O)N[C@@H](C)C(=O)N[C@@H](Cc1c[nH]c2ccccc12)C(=O)N[C@@H](CC(C)C)C(=O)N[C@H](C(=O)N[C@@H](CCCCN)C(=O)NCC(=O)N[C@@H](CCCNC(=N)N)C(=O)NCC(N)=O)C(C)C [SEQ. ID. NO: 14]
